{
  "source": "patent US20140274883A1",
  "about": "“NOVEL ANTIVIRAL COMPOUNDS FROM MARINE EXTRACTS” (priority 2008, published 2014)",
  "system": "influenza A/Wyoming/03/2003 (H3N2)",
  "test": "Plaque reduction assay in MDCK cell monolayers",
  "assay_type": "cell-based, influenza virus",
  "conditions": "5 μg/mL drug control, 72 h",
  "data": [
    {"smiles": "NC(=O)c1ncn([C@@H]2O[C@H](CO)[C@@H](O)[C@H]2O)n1", "note": "[Ribavirin, ribavirin]", "values": [
      {"measurement": "plaque formation", "value": "completely inhibits the formation of plaques"}
    ]}
  ]
}
